# Experimental data from US11795460B2, “Compositions and methods for TTR gene editing and treating ATTR amyloidosis” (Intellia Therapeutics, Inc., priority 2017, dated 2023).
# Legend:
# TTR [1] = assay: TTR editing in primary human hepatocytes transfected with Spy Cas9 protein (RNP) loaded with dgRNAs (Table 8); format: cell-based; conditions: dgRNA transfected with Spy Cas9 protein (RNP)
# How it was run: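 Primary human hepatocytes were lipofected (RNAiMAX) with RNP of Spy Cas9 (10 nM) plus pre-annealed crRNA (10 nM) and trRNA (10 nM) and harvested 24, 48 or 72 h later. Target-site amplicons were sequenced on Illumina MiSeq and aligned to hg38; percent editing = reads with indels or substitutions over total reads.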
# TTR [2] = assay: TTR editing in HEK293_Cas9 cells transfected with dgRNAs (Table 4); format: cell-based, human; conditions: HEK293_Cas9 cells (constitutively express Spy Cas9) transfected with dgRNAs
# How it was run: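 Percent editing, taken from amplicon NGS as the fraction of all reads carrying insertions, deletions or substitutions, was measured 24, 48 or 72 h after delivery. Delivery used RNAiMAX lipoplexes of 25 nM each crRNA and trRNA into HEK293 cells stably expressing Spy Cas9.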
# TTR [3] = assay: TTR editing in HepG2 cells transfected with Spy Cas9 mRNA and dgRNAs (Table 6); format: cell-based, human; conditions: HepG2 cells co-transfected with Spy Cas9 mRNA (SEQ ID NO:2) and dgRNAs
# How it was run: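 Percent editing is the share of sequencing reads at the TTR target locus that carry insertions, deletions or substitutions, measured by Illumina amplicon sequencing aligned to hg38. Samples came from HepG2 cells lipofected first with 100 ng Cas9 mRNA and then with dual-guide RNA (25 nM crRNA/tracer), collected 24–72 h later.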
Sequence,Avg % Deletion (TTR [1]) [%],Avg % Edit (TTR [1]) [%],Avg % Insert (TTR [1]) [%],Avg % Deletion (TTR [2]) [%],Avg % Edit (TTR [2]) [%],Avg % Insert (TTR [2]) [%],Avg % Deletion (TTR [3]) [%],Avg % Edit (TTR [3]) [%],Avg % Insert (TTR [3]) [%]
"GUGAGUCUGGAGAGCUGCAU (tested as dual guide RNA, chemistry not given here) [CR003360]",1.19,31.47,30.27,19.98,22.68,2.70,2.38,41.31,38.94
"GGGAUUGGUGACGACAGCCG (tested as dual guide RNA, chemistry not given here) [CR003390]",0.24,16.09,15.85,23.71,28.02,4.31,2.44,24.88,22.44
"AUAGGAGUAGGGGCUCAGCA (tested as dual guide RNA, chemistry not given here) [CR003383]",0.24,4.76,4.52,15.35,40.47,25.12,0.16,6.35,6.19
